Measured values published in patent publication US20020091086A1, “Peptides that block viral infectivity and methods of use thereof” (priority 1999, published 2002).
Like-named read-outs stand apart in the source and are kept apart here. Peptide text beside a SMILES is read from it.

Legend:
HIV-1 = settings: 100 μM, HUT78 cells; for p24 / reduction (%): Experiment 6, Day 7 HIV-1; for HIV-1 infection, result in words: summary of Experiment 6
Description: In experiment 6 (Table 7 and FIG. 1), approximately 200,000 HUT78 cells were infected with HIV-1 at 25 TCID50 to test the inhibitory effect of GPG-NH2, RQG-NH2, KQG-NH2, ALG-NH2, GVG-NH2, VGG-NH2, ASG-NH2, SLG-NH2, and SPT-NH2. The HUT cells were resuspended in lml of RPMI 1640 medium supplemented with 10% (v/v) heat-inactivated fetal bovine serum (FBS, GIBCO), penicillin (100 u/ml), streptomycin (100 u/ml) and Polybrene (Sigma, 2 μg/ml) with or without the presence of the different small peptides (100 μM) mentioned above. Thereafter, the HIV-1 virus was added at 25 TCID50 in a volume of 20 μl. Cells were incubated with the virus at 37° C. for one hour and, subsequently, the cells were pelleted at 170×g for seven minutes. The cells were then washed three times in RPMI medium without peptides at room temperature by cell sedimentation at 170×g for seven minutes, as above. After the final wash, the cells were resuspended in RPMI culture medium containing the peptides in 24-well plate (Costar corporation) and were kept at 37° C. in 5% CO2 with humidity. Culture supernatants were collected when medium was changed at day 4, 7, and 11 post infection and viral p24 production was monitored by using an HIV-1 p24 ELISA kit (Abbott Laboratories, North Chicago, USA).

HIV-1 SF-2 virus = test: electron microscopy of HIV-1 particles from infected HUT78 cells; format: cell-based; settings: 0.5μM; cells fixed day 14
Description: In this set of experiments, HUT78 cells were infected with HIV-1 SF-2 virus at 300TCID50 for 1 hr at 37° C. Subsequently, the infected cells were washed and pelleted 3 times, as described in Example 2. Thereafter, the cells were resuspended in RPMI culture medium supplemented with 10% FBS, antibiotics (100 u/ml) and polybrene (3.2 μg/ml). GPG-NH2 was then added into the cell cultures 3, 5 or 7 days post infection at concentration of 1 μM or 10 μM. A control sample was administered 0.5μM Ritonavir (a protease inhibitor).
The cells were cultured until day 14, at which point, the cells were fixed in 2.5% glutaraldehyde by conventional means. The fixed cells were then postfixed in 1% OSO4 and were dehydrated, embedded with epoxy resins, and the blocks were allowed to polymerize. Epon sections of virus infected cells were made approximately 60-80 nm thin in order to accommodate the width of the nucleocapsid. The sections were mounted to grids stained with 1.0% uranyl acetate and were analyzed in a Zeiss CEM 902 microscope at an accelerating voltage of 80 kV. The microscope was equipped with a spectrometer to improve image quality and a liquid nitrogen cooling trap was used to reduce beam damage. The grids having sections of control and GPG-NH2 incubated cells were examined in several blind studies.

[1] = system: HIV-1 isolate p7141 (high PI); test: resistant HIV-1 isolates in PBMC, p24 ELISA; format: cell-based; settings: Rito 0.1 μM, 14 days post infection
[2] = system: HIV-1 isolate p7300 (low PI); test: resistant HIV-1 isolates in PBMC, p24 ELISA; format: cell-based; settings: Rito 0.1 μM, 14 days post infection

| SMILES | p24 (HIV-1) | reduction (%) (HIV-1) | HIV-1 infection, result in words (HIV-1) | also measured |
| --- | --- | --- | --- | --- |
| C[C@H](N)C(=O)N[C@@H](CO)C(=O)NCC(N)=O [ASG-NH2, alanyl-seryl-glycine amide] (H-Ala-Ser-Gly-NH2) | 15000 pg/mL | 25% | – | – |
| CC(C)[C@H](NC(=O)CN)C(=O)NCC(N)=O [GVG-NH2, glycyl-valyl-glycine amide] (H-Gly-Val-Gly-NH2) | 15000 pg/mL | 25% | – | – |
| NCCCC[C@H](N)C(=O)N[C@@H](CCC(N)=O)C(=O)NCC(N)=O [KQG-NH2, lysyl-glutaminyl-glycine amide] (H-Lys-Gln-Gly-NH2) | 154 pg/mL | ~100% | inhibited and/or prevented HIV-1 infection | reduction (%) (HIV-1; listed as KQG—NH2): 99% |
| N=C(N)NCCC[C@H](N)C(=O)N[C@@H](CCC(N)=O)C(=O)NCC(N)=O [RQG-NH2, arginyl-glutaminyl-glycine amide] (H-Arg-Gln-Gly-NH2) | 113 pg/mL | ~100% | inhibited and/or prevented HIV-1 infection | reduction (%) (HIV-1; listed as RQG—NH2): 99% |
| CC(C)c1nc(CN(C)C(=O)N[C@H](C(=O)N[C@@H](Cc2ccccc2)C[C@H](O)[C@H](Cc2ccccc2)NC(=O)OCc2cncs2)C(C)C)cs1 [Ritonavir, reference compound] | – | – | – | viral particle structure, electron microscopy (HIV-1 SF-2 virus): malformed structures that did not have a discemable nucleocapsid; % reduction [1]: (14%); HIV-1 p24 [1]: 98000 pg/mL; % reduction [2]: (56%); HIV-1 p24 [2]: 64000 pg/mL |
| CC(C)C[C@H](NC(=O)[C@@H](N)CO)C(=O)NCC(N)=O [SLG-NH2, seryl-leucyl-glycine amide] (H-Ser-Leu-Gly-NH2) | 114 pg/mL | ~100% | inhibited and/or prevented HIV-1 infection | reduction (%) (HIV-1; listed as SLG—NH2): 99% |
| C[C@@H](O)[C@H](NC(=O)[C@@H]1CCCN1C(=O)[C@@H](N)CO)C(N)=O [SPT-NH2, seryl-prolyl-threonine amide] (H-Ser-Pro-Thr-NH2) | 15000 pg/mL | 25% | – | – |
| CC(C)[C@H](N)C(=O)NCC(=O)NCC(N)=O [VGG-NH2, valyl-glycyl-glycine amide] (H-Val-Gly-Gly-NH2) | 10000 pg/mL | 50% | – | – |
